For orientation: IC50 means the concentration needed to halve the response being measured.

Recombinant human cathepsin A, sequence (P10619 29-326): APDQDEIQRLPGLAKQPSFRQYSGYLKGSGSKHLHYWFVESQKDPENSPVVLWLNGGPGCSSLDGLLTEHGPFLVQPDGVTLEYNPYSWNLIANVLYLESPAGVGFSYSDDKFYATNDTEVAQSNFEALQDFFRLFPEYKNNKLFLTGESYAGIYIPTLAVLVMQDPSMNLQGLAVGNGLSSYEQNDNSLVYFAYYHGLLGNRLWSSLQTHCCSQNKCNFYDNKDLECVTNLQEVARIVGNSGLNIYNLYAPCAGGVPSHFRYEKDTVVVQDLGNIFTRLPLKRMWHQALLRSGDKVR
Recombinant human cathepsin A, sequence (P10619 327-480): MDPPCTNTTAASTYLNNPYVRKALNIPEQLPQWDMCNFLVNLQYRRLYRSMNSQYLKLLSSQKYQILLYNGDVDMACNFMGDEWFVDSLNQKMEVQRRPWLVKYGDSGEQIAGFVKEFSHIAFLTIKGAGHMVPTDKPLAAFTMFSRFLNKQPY

One assay addresses Recombinant human cathepsin A (Homo sapiens (Human), UniProt P10619). The assay can be described thus: Cathepsin A inhibitory activity (Bodipy FL-labeled bradykinin substrate, microfluidic capillary electrophoresis). The conditions noted are these: Cathepsin A inhibitory activity, read-out: CATHA IC50. Format: biochemical. The procedure: Pharmacological Tests a) Cathepsin a Inhibitory Activity
Recombinant human cathepsin A (residues 29-480, with a C-terminal 10-His tag; R&D Systems, #1049-SE) was proteolytically activated with recombinant human cathepsin L (R&D Systems, #952-CY). Briefly, cathepsin A was incubated at 10 μg/ml with cathepsin L at 1 μg/ml in activation buffer (25 mM 2-(morpholin-4-yl)-ethanesulfonic acid (MES), pH 6.0, containing 5 mM dithiothreitol (DTT)) for 15 min at 37° C.
The activated cathepsin A was diluted in assay buffer (25 mM MES, pH 5.5, containing 5 mM DTT) and mixed with the test compound (dissolved in assay buffer containing (v/v) 3% DMSO) or, in the control experiments, with the vehicle in a multiple assay plate. After incubation for 15 min at room temperature, as substrate then bradykinin carrying an N-terminal® Bodipy FL (4,4-difluoro-5,7-dimethyl-4-bora-3a,4a-diaza-s-indacene-3-propionyl) label (JPT Peptide Technologies GmbH; dissolved in assay buffer) was added to the mixture. The final concentration of cathepsin A was 833 ng/ml and the final concentration of labeled bradykinin 2 μM. After incubation for 15 min at room temperature the reaction was stopped by the addition of stop buffer (130 mM 2-(4-(2-hydroxy-ethyl)-piperazin-1-yl)-ethanesulfonic acid, pH 7.4, containing (v/v) 0.013%° Triton X-100, 0.13% Coating Reagent 3 (Caliper Life Sciences), 6.5% DMSO and 20 μM ebelactone B (Sigma, #E0886)).
Uncleaved substrate and product were then separated by a microfluidic capillary electrophoresis on a LabChip® 3000 Drug Discovery System (12-Sipper-Chip; Caliper Life Sciences) and quantified by determination of the respective peak areas. Substrate turnover was calculated by dividing product peak area by the sum of substrate and product peak areas, and the enzyme activity and the inhibitory effect of the test compound thus quantified.
As to `Cc1cnc(C(CC(=O)O)c2cc(F)cc(-c3ccncc3)c2)s1` (stereo not shown) [compound 139], the IC50 is 8650 nM.

Consider `Cc1cnc(C(CC(=O)O)c2cc(Cl)cc(-c3ccccc3C(=O)N(C)C)c2)s1` (stereo not shown) [compound 116], for which the IC50 amounted to 1440 nM.

`O=C(O)CC(c1cc(F)cc(-c2cccc(OC(F)(F)F)c2)c1)c1ncco1` (stereo not shown) [compound 138]: the IC50 amounted to 2280 nM.

`Cc1ccc(F)c(-c2cc(F)cc(C(CC(=O)O)c3ncco3)c2)c1` (stereo not shown) [compound 123]: the concentration for half-maximal inhibition (IC50) was 903 nM.

Consider `Cc1cnc(C(CC(=O)O)c2cc(F)cc(-c3cc(F)ccc3F)c2)s1` (stereo not shown) [compound 120], for which the concentration for half-maximal inhibition (IC50) worked out at 649 nM.

For the compound `Cc1cnc(C(CC(=O)O)c2cc(Cl)cc(-c3ccncc3F)c2)s1` (stereo not shown) [compound 117], the IC50 was 1560 nM.

For `Cc1ccc(F)c(-c2cc(F)cc(C(CC(=O)O)c3ncc(C)s3)c2)c1` (stereo not shown) [compound 118], the IC50 was 437 nM.

Consider `Cc1nnc(C(CC(=O)O)c2cccc(-c3ccccc3)c2)o1` (stereo not shown) [compound 167], for which the IC50 turned out to be 935 nM.

On to `Cc1cnc(C(CC(=O)O)c2cc(F)cc(-c3ccccc3C(N)=O)c2)s1` (stereo not shown) [compound 127], for which the half-inhibitory concentration (IC50) came out at 1230 nM.

Turning to `NC(=O)c1ccccc1-c1cc(F)cc(C(CC(=O)O)c2ncco2)c1` (stereo not shown) [compound 134], the IC50 was determined as 1770 nM.

Turning to `Cc1cnc(C(CC(=O)O)c2cc(F)cc(-c3ccccc3C#N)c2)s1` (stereo not shown) [compound 131], the IC50 turned out to be 1690 nM.

The same assay, now with this note: read-out: CATHA IC50.
`COc1ccc(-c2ccc(Cl)cc2)cc1C(CC(=O)O)c1ncc(C)s1` (stereo not shown) [compound 76]: the IC50 is 3200 nM.

As to `O=C(O)CC(c1cccc(-c2cccc(OCc3ccccc3)c2)c1)c1nccs1` (stereo not shown) [compound 35], the 50% inhibitory concentration (IC50) worked out at 2770 nM.

Consider `O=C(O)CC(c1cccc(-c2ccc(F)cc2)c1)c1nccs1` (stereo not shown) [compound 14], for which the IC50 worked out at 4300 nM.

As to `COc1ccc(-c2cc(C)ccc2F)cc1C(CC(=O)O)c1ncc(C)s1` (stereo not shown) [compound 86], the half-maximal inhibitory concentration (IC50) was determined as 5680 nM.

Regarding `COc1ccc(-c2cccc(Cl)c2C)cc1C(CC(=O)O)c1ncc(C)s1` (stereo not shown) [compound 67], the concentration for half-maximal inhibition (IC50) turned out to be 1310 nM.

As for `COc1cc(F)c(-c2cccc(C(CC(=O)O)c3nccs3)c2)cc1F` (stereo not shown) [compound 22], the IC50 was 1320 nM.

In the case of `Cc1cnc(C(CC(=O)O)c2cccc(-c3ccncc3F)c2)s1` (stereo not shown) [compound 57], the half-inhibitory concentration (IC50) worked out at 7060 nM.

For `O=C(O)CC(c1cccc(-c2ccc(OCC3CC3)cc2)c1)c1nccs1` (stereo not shown) [compound 30], the IC50 was found to be 2290 nM.

With `Cn1nccc1-c1cccc(C(CC(=O)O)c2nccs2)c1` (stereo not shown) [compound 42], the IC50 is 15100 nM.

Take `COc1c(C)cc(-c2cccc(C(CC(=O)O)c3nccs3)c2)cc1C` (stereo not shown) [compound 25]: the IC50 was found to be 1650 nM.

In the case of `COc1cccc(-c2ccc(OC)c(C(CC(=O)O)c3ncc(C)s3)c2)c1` (stereo not shown) [compound 85], the 50% inhibitory concentration (IC50) stood at 5560 nM.

As to `COc1ccc(-c2ccccc2Cl)cc1C(CC(=O)O)c1ncc(C)s1` (stereo not shown) [compound 88], the IC50 turned out to be 6690 nM.

Turning to `O=C(O)CC(c1cccc(-c2cccc(OC(F)(F)F)c2)c1)c1nccs1` (stereo not shown) [compound 28], the half-inhibitory concentration (IC50) amounted to 2250 nM.

In the case of `N#Cc1ccc(-c2cccc(C(CC(=O)O)c3nccs3)c2)cn1` (stereo not shown) [compound 45], the IC50 came to 22600 nM.

For the compound `Nc1ccc(-c2cccc(C(CC(=O)O)c3nccs3)c2)c(F)n1` (stereo not shown) [compound 23], the IC50 was 1390 nM.

In the case of `Cc1cnc(C(CC(=O)O)c2cc(Cl)cc(-c3cc(F)ccc3F)c2)s1` (stereo not shown) [compound 101], the IC50 came out at 136 nM.

In the case of `COc1ccc(-c2cccc(C#N)c2)cc1C(CC(=O)O)c1ncc(C)s1` (stereo not shown) [compound 94], the half-inhibitory concentration (IC50) stood at 9260 nM.

For the compound `Cc1cnc(C(CC(=O)O)c2cc(Cl)cc(-c3cccc(C)c3F)c2)s1` (stereo not shown) [compound 102], the IC50 was determined as 184 nM.

In the case of `COc1ccc(-c2ccc(OC)c(C(CC(=O)O)c3ncc(C)s3)c2)cc1` (stereo not shown) [compound 92], the 50% inhibitory concentration (IC50) amounted to 7810 nM.

As for `COc1cccc(-c2cccc(C(CC(=O)O)c3nccs3)c2)c1` (stereo not shown) [compound 21], the IC50 is 1180 nM.

Take `O=C(O)CC(c1cccc(-c2ccncc2Cl)c1)c1nccs1` (stereo not shown) [compound 43]: the IC50 was found to be 19400 nM.

Turning to `O=C(O)CC(c1cccc(-c2ccc(OCc3ccccc3)c(F)c2)c1)c1nccs1` (stereo not shown) [compound 33], the concentration for half-maximal inhibition (IC50) stood at 2430 nM.

On to `COc1ccc(-c2ccccc2F)cc1C(CC(=O)O)c1ncc(C)s1` (stereo not shown) [compound 72], for which the IC50 was found to be 2340 nM.

For `COc1ccc(-c2cccc(C(CC(=O)O)c3nccs3)c2)cn1` (stereo not shown) [compound 39], the IC50 is 8350 nM.

For `COc1ccc(-c2ccc(F)cc2Cl)cc1C(CC(=O)O)c1ncc(C)s1` (stereo not shown) [compound 87], the IC50 came to 6360 nM.

Take `COc1ccc(-c2ccc(C(F)(F)F)cc2)cc1C(CC(=O)O)c1ncc(C)s1` (stereo not shown) [compound 83]: the IC50 was 4380 nM.

As for `Cc1cccc(-c2cccc(C(CC(=O)O)c3nccs3)c2)c1C` (stereo not shown) [compound 9], the IC50 was 2480 nM.

In the case of `COc1ccc(-c2ccccc2C(F)(F)F)cc1C(CC(=O)O)c1ncc(C)s1` (stereo not shown) [compound 95], the IC50 is 10200 nM.

As to `Cc1cnc(C(CC(=O)O)c2cc(Cl)cc(-c3cccnc3)c2)s1` (stereo not shown) [compound 115], the half-maximal inhibitory concentration (IC50) was found to be 1060 nM.

On to `CC(=O)c1ccccc1-c1cc(Cl)cc(C(CC(=O)O)c2ncc(C)s2)c1` (stereo not shown) [compound 106], for which the IC50 amounted to 250 nM.

`Cc1cnc(C(CC(=O)O)c2cccc(-c3ccncc3)c2)s1` (stereo not shown) [compound 60]: the half-inhibitory concentration (IC50) is 13700 nM.

For `Cc1ccccc1-c1cccc(C(CC(=O)O)c2nccs2)c1` (stereo not shown) [compound 12], the IC50 was determined as 3540 nM.

Consider `CC(C)COc1cc(F)cc(-c2cccc(C(CC(=O)O)c3nccs3)c2)c1` (stereo not shown) [compound 31], for which the half-inhibitory concentration (IC50) was 2310 nM.

On to `COc1cc(F)c(-c2cc(Cl)cc(C(CC(=O)O)c3ncc(C)s3)c2)c(F)c1` (stereo not shown) [compound 108], for which the IC50 was 335 nM.

In the case of `COc1ccc(-c2cc(Cl)ccc2F)cc1C(CC(=O)O)c1ncc(C)s1` (stereo not shown) [compound 65], the half-inhibitory concentration (IC50) was 1230 nM.

For `Cc1nnc(C(CC(=O)O)c2cccc(-c3cccc(Cl)c3Cl)c2)o1` (stereo not shown) [compound 15], the IC50 turned out to be 634 nM.

In the case of `COc1ccc(-c2cccc(C(CC(=O)O)c3ncc(C)s3)c2)c(F)c1` (stereo not shown) [compound 54], the 50% inhibitory concentration (IC50) amounted to 989 nM.

`COc1ccc(-c2cc(Cl)cc(C(CC(=O)O)c3ncc(C)s3)c2)c(F)c1` (stereo not shown) [compound 113]: the IC50 turned out to be 563 nM.

Turning to `COc1ccc(-c2ccc(Cl)cc2F)cc1C(CC(=O)O)c1ncc(C)s1` (stereo not shown) [compound 79], the IC50 is 3570 nM.

On to `Cc1cccc(-c2cccc(C(CC(=O)O)c3nccs3)c2)c1` (stereo not shown) [compound 3], for which the half-inhibitory concentration (IC50) worked out at 784 nM.

With `O=C(O)CC(c1cccc(-c2cccnc2Cl)c1)c1nccs1` (stereo not shown) [compound 41], the IC50 is 11600 nM.

`Cc1cnc(C(CC(=O)O)c2cccc(-c3cccnc3)c2)s1` (stereo not shown) [compound 58]: the IC50 was determined as 7540 nM.

Take `COc1ccc(-c2cccc(F)c2)cc1C(CC(=O)O)c1ncc(C)s1` (stereo not shown) [compound 70]: the half-inhibitory concentration (IC50) came out at 1960 nM.

On to `Cn1nc(-c2cccc(C(CC(=O)O)c3nccs3)c2)c2ccccc21` (stereo not shown) [compound 18], for which the IC50 turned out to be 769 nM.

With `COc1ccc(-c2ccc(C)cc2C)cc1C(CC(=O)O)c1ncc(C)s1` (stereo not shown) [compound 75], the IC50 came to 3090 nM.

As for `Cc1cnc(C(CC(=O)O)c2cc(Cl)cc(-c3ccccc3OC(F)(F)F)c2)s1` (stereo not shown) [compound 104], the concentration for half-maximal inhibition (IC50) amounted to 221 nM.

Turning to `COc1ccc(-c2cc(F)ccc2Cl)cc1C(CC(=O)O)c1ncc(C)s1` (stereo not shown) [compound 66], the half-inhibitory concentration (IC50) worked out at 1250 nM.

For the compound `O=C(O)CC(c1cccc(-c2cccc(F)c2Cl)c1)c1nccs1` (stereo not shown) [compound 11], the IC50 was 2720 nM.

For `COc1ccc(-c2ccc(F)cc2C)cc1C(CC(=O)O)c1ncc(C)s1` (stereo not shown) [compound 80], the IC50 was determined as 3730 nM.

For `O=C(O)CC(c1cccc(-c2cc(C(F)(F)F)ccc2F)c1)c1nccs1` (stereo not shown) [compound 13], the IC50 came to 3620 nM.

For the compound `O=C(O)CC(c1cccc(-c2ccccc2)c1)c1nccs1` (stereo not shown) [compound 10], the IC50 was determined as 2590 nM.

As for `COc1ccc(-c2ccc(C)cc2F)cc1C(CC(=O)O)c1ncc(C)s1` (stereo not shown) [compound 62], the IC50 came to 970 nM.

As for `Cc1cccc(-c2cccc(C(CC(=O)O)c3nccs3)c2)c1Cl` (stereo not shown) [compound 4], the IC50 worked out at 797 nM.

As to `Cc1cnc(C(CC(=O)O)c2cc(Cl)cc(-c3ccncc3)c2)s1` (stereo not shown) [compound 112], the 50% inhibitory concentration (IC50) came out at 459 nM.

Turning to `Cc1cnc(C(CC(=O)O)c2cc(Cl)cc(-c3ccccc3F)c2)s1` (stereo not shown) [compound 107], the IC50 is 328 nM.

In the case of `Cc1nnc(C(CC(=O)O)c2cccc(-c3ccncc3)c2)o1` (stereo not shown) [compound 16], the half-inhibitory concentration (IC50) amounted to 23200 nM.

Values taken from US9199947B2, “Biaryl-propionic acid derivatives and their use as pharmaceuticals” (SANOFI, priority 2013, dated 2015).
